The subject of test [1] is muscle progenitors (hMP) from DMD hiPSC or WT hiPSC. Put plainly: Myotube assay: myogenic activity (total myotube area per well). Type of test: cell-based, human. The note with it: Homo sapiens, 72 h, myotube assay, compounds incubated 3 days; for Emax: read-out: MA (normalized Myotube Area, efficacy). The essentials: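 DMD or WT hiPSC-derived muscle progenitors plated on collagen I in K5 medium with 5 μM Y-27632, treated with compound (1.5 nM–30 μM) for 3 days at 37° C. Cells were fixed, stained for alpha-actinin and imaged for total myotube area per well. EC50 and normalized myotube area (MA) taken from duplicate-averaged data.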

Test [2] has as its system satellite-like cells (Pax7-positive cells) in hMP. As to the kind of experiment: Myotube assay: Pax7-positive (satellite-like) cell quantification. Type of test: cell-based, human. On the set-up: key to Pax7% (pool of Pax7-positive cells) / Pax7: −: Depletes the pool of cells, while positively affects the myotubes; +: Maintains or increases the pool of cells, with at least 1 of the highest concentration known to be cytotoxic; ++: Maintains or increases the pool of cells, without any toxicity. The note with it: myotube assay, compounds incubated 3 days. A digest of the protocol:
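DMD hiPSC-derived muscle progenitors (hMP) proliferated 4 days, then plated on collagen I in K5 medium with 5 μM Y-27632. Compound added at 1.5 nM–30 μM for 3 days at 37° C, then cells fixed and immunostained. Pax7-positive cells counted as percentage of total nuclei, duplicates averaged.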

Experimental findings from US20230089368A1, “POLYAROMATIC UREA DERIVATIVES AND THEIR USE IN THE TREATMENT OF MUSCLE DISEASES” (ANAGENESIS BIOTECHNOLOGIES S.A.S., priority 2019, published 2023) are described below.

For the compound `CNCC(=O)Nc1cc(Oc2ccc(NC(=O)Nc3cc(C(C)(C)C)nn3-c3ccccc3)c(SC)c2)ccn1` [(bq), N-(4-(4-(3-(3-(tert-butyl)-1-phenyl-1H-pyrazol-5-yl)ureido)-3-(methylthio)phenoxy)pyridin-2-yl)-2-(methylamino)acetamide], the EC50 in test [1] (10 points dose-response 1.5 nM to 30 μM, read-out: EC50 (myogenic activity, half-maximal generation of myotubes)) was less than 500 nM. For the same compound, the Emax in test [1] was no less than 75%. Further, the “Pax7% (pool of Pax7-positive cells)” value in test [2] is listed as “+”.

Consider `CNC(=O)c1cc(Oc2ccc(NC(=O)Nc3cc(C(C)(C)C)nn3-c3ccccc3)c(SC)c2)ccn1` [(br), 4-(4-(3-(3-(tert-butyl)-1-phenyl-1H-pyrazol-5-yl)ureido)-3-(methylthio)phenoxy)-N-methylpicolinamide], for which the Emax in test [1] is no less than 75%. Moreover, in test [2], the “Pax7% (pool of Pax7-positive cells)” value is “++”.

`CSc1cc(Oc2ccnc3nccnc23)ccc1NC(=O)Nc1cc(C(C)(C)C)nn1-c1ccccc1` [(bs), 1-(3-(tert-butyl)-1-phenyl-1H-pyrazol-5-yl)-3-(2-(methylthio)-4-(pyrido[2,3-b]pyrazin-8-yloxy)phenyl)urea]: the Emax in test [1] is no less than 75%. The “Pax7% (pool of Pax7-positive cells)” value in test [2] is “++”.

Consider `CC(C)(C)c1cc(NC(=O)Nc2cc(F)c(Oc3ccnc4[nH]c(=O)cnc34)cc2F)n(-c2ccccc2)n1` [(bt), 1-(3-(tert-butyl)-1-phenyl-1H-pyrazol-5-yl)-3-(2,5-difluoro-4-((3-oxo-3,4-dihydropyrido[2,3-b]pyrazin-8-yl)oxy)phenyl)urea], for which the Emax in test [1] was no less than 75%. The “Pax7% (pool of Pax7-positive cells)” value in test [2] was “++”.

As for `CSc1cc(Oc2cccc3[nH]c(=O)cnc23)ccc1NC(=O)Nc1cc(C(C)(C)C)nn1-c1ccccc1` [(bu), 1-(3-(tert-butyl)-1-phenyl-1H-pyrazol-5-yl)-3-(2-(methylthio)-4-((2-oxo-1,2-dihydroquinoxalin-5-yl)oxy)phenyl)urea], in test [1], the Emax lay in the range of 25 to 50%. Also, the “Pax7% (pool of Pax7-positive cells)” value in test [2] was “++”.

In the case of `CSc1cc(Oc2ncnc3[nH]c(=O)cnc23)ccc1NC(=O)Nc1cc(C(C)(C)C)nn1-c1ccccc1` [(bv), 1-(3-(tert-butyl)-1-phenyl-1H-pyrazol-5-yl)-3-(2-(methylthio)-4-((7-oxo-7,8-dihydropteridin-4-yl)oxy)phenyl)urea], the Emax in test [1] is no less than 75%. Moreover, the “Pax7% (pool of Pax7-positive cells)” value in test [2] is “++”.

On to `CSc1cc(Oc2ccnc3[nH]c(=O)cnc23)ccc1NC(=O)Nc1cc(C(C)(C)C)nn1-c1cccc(F)c1` [(bw), 1-(3-(tert-butyl)-1-(3-fluorophenyl)-1H-pyrazol-5-yl)-3-(2-(methylthio)-4-((3-oxo-3,4-dihydropyrido[2,3-b]pyrazin-8-yl)oxy)phenyl)urea], for which the Emax in test [1] was no less than 75%. For the same compound, the “Pax7% (pool of Pax7-positive cells)” value in test [2] is “++”.

Take `CSc1cc(Oc2ccnc3[nH]c(=O)cnc23)ccc1NC(=O)Nc1cc(C(C)(C)C)no1` [(bx), 1-(3-(tert-butyl)isoxazol-5-yl)-3-(2-(methylthio)-4-((3-oxo-3,4-dihydropyrido[2,3-b]pyrazin-8-yl)oxy)phenyl)urea]: in test [1], the Emax is no less than 75%. The “Pax7% (pool of Pax7-positive cells)” value in test [2] is “++”.

For `CSc1cc(Oc2ccnc3c2CCC(=O)N3)ccc1NC(=O)Nc1cc(C(C)(C)C)nn1-c1ccc(C)cc1` [(by), 1-(3-(tert-butyl)-1-(p-tolyl)-1H-pyrazol-5-yl)-3-(2-(methylthio)-4-((7-oxo-5,6,7,8-tetrahydro-1,8-naphthyridin-4-yl)oxy)phenyl)urea], the Emax in test [1] is no less than 75%. In addition, the “Pax7% (pool of Pax7-positive cells)” value in test [2] was “+”.

Regarding `CSc1cc(Oc2ccnc3c2CCC(=O)N3)ccc1NC(=O)Nc1cc(C(C)(C)C)nn1-c1cccc(Cl)c1` [(bz), 1-(3-(tert-butyl)-1-(3-chlorophenyl)-1H-pyrazol-5-yl)-3-(2-(methylthio)-4-((7-oxo-5,6,7,8-tetrahydro-1,8-naphthyridin-4-yl)oxy)phenyl)urea], the Emax in test [1] is no less than 75%. In test [2], the “Pax7% (pool of Pax7-positive cells)” value is reported as “+”.

As to `CCC(C)c1cc(NC(=O)Nc2ccc(Oc3ccnc4[nH]c(=O)cnc34)cc2F)n(-c2ccccc2)n1` (stereo not shown) [(c), 1-(3-(sec-butyl)-1-phenyl-1H-pyrazol-5-yl)-3-(2-fluoro-4-((3-oxo-3,4-dihydropyrido[2,3-b]pyrazin-8-yl)oxy)phenyl)urea], the Emax in test [1] was in the range of 50 to 75%. Besides, in test [2], the “Pax7% (pool of Pax7-positive cells)” value is on record as “+”.

In the case of `CSc1cc(Oc2ccnc3[nH]c(=O)cnc23)ccc1NC(=O)Nc1nc(C(C)(C)C)cs1` [(ca), 1-(4-(tert-butyl)thiazol-2-yl)-3-(2-(methylthio)-4-((3-oxo-3,4-dihydropyrido[2,3-b]pyrazin-8-yl)oxy)phenyl)urea], the Emax in test [1] was no less than 75%. In addition, the “Pax7% (pool of Pax7-positive cells)” value in test [2] is “++”.

In the case of `CSc1cc(Oc2ccnc3c2CCC(=O)N3)ccc1NC(=O)Nc1ncc(C(C)(C)C)s1` [(cb), 1-(5-(tert-butyl)thiazol-2-yl)-3-(2-(methylthio)-4-((7-oxo-5,6,7,8-tetrahydro-1,8-naphthyridin-4-yl)oxy)phenyl)urea], the Emax in test [1] was no less than 75%. Besides, the “Pax7% (pool of Pax7-positive cells)” value in test [2] is listed as “++”.

As to `CSc1cc(Oc2ccnc3[nH]c(=O)cnc23)ccc1NC(=O)Nc1cc(C(C)(C)C)nn1-c1ccc(C#N)cc1` [(cc), 1-(3-(tert-butyl)-1-(4-cyanophenyl)-1H-pyrazol-5-yl)-3-(2-(methylthio)-4-((3-oxo-3,4-dihydropyrido[2,3-b]pyrazin-8-yl)oxy)phenyl)urea], the Emax in test [1] is no less than 75%. Besides, in test [2], the “Pax7% (pool of Pax7-positive cells)” value is “+”.

Take `CSc1cc(Oc2ccnc3[nH]c(=O)cnc23)ccc1NC(=O)Nc1cc(C(C)(C)C)nn1-c1ccc(C)c(C)c1` [(cd), 1-(3-(tert-butyl)-1-(3,4-dimethylphenyl)-1H-pyrazol-5-yl)-3-(2-(methylthio)-4-((3-oxo-3,4-dihydropyrido[2,3-b]pyrazin-8-yl)oxy)phenyl)urea]: in test [1], the Emax is no less than 75%. Also, the “Pax7% (pool of Pax7-positive cells)” value in test [2] was “++”.

On to `CSc1cc(Oc2ccnc3[nH]c(=O)cnc23)ccc1NC(=O)Nc1cc(C(C)(C)C)nn1-c1ccc(OCCN2CCCCC2)cc1` [(ce), 1-(3-(tert-butyl)-1-(4-(2-(piperidin-1-yl)ethoxy)phenyl)-1H-pyrazol-5-yl)-3-(2-(methylthio)-4-((3-oxo-3,4-dihydropyrido[2,3-b]pyrazin-8-yl)oxy)phenyl)urea], for which the Emax in test [1] was no less than 75%. For the same compound, in test [2], the “Pax7% (pool of Pax7-positive cells)” value was “+”.

For `CSc1cc(Oc2ccnc3[nH]c(=O)cnc23)ccc1NC(=O)Nc1cc(C(C)(C)C)nn1-c1ccc(OCCN2CCOCC2)cc1` [(cf), 1-(3-(tert-butyl)-1-(4-(2-morpholinoethoxy)phenyl)-1H-pyrazol-5-yl)-3-(2-(methylthio)-4-((3-oxo-3,4-dihydropyrido[2,3-b]pyrazin-8-yl)oxy)phenyl)urea], the Emax in test [1] was no less than 75%. Further, the “Pax7% (pool of Pax7-positive cells)” value in test [2] was “−”.

`CSc1cc(Oc2ccnc3c2CCC(=O)N3)ccc1NC(=O)Nc1cncc(C(F)(F)F)c1` [(cg), 1-(2-(methylthio)-4-((7-oxo-5,6,7,8-tetrahydro-1,8-naphthyridin-4-yl)oxy)phenyl)-3-(5-(trifluoromethyl)pyridin-3-yl)urea]: the Emax in test [1] was no less than 75%. For the same compound, the “Pax7% (pool of Pax7-positive cells)” value in test [2] is on record as “−”.
